Patent US20250320193A1, “OXOISOINDOLINYL SUBSTITUTED PIPERIDINEDIONE DERIVATIVE AND USE THEREOF” (GLUETACS THERAPEUTICS (SHANGHAI) CO., LTD., priority 2022, published 2025)
pIC50: −log10 of the molar value.

Legend:
IKZF3 = IKZF3 (Homo sapiens (Human), UniProt Q96SW2+Q9UKT9); experiment: Western blot, substrate protein expression in hPBMC: IKZF3; format: cell-based; conditions: hPBMC, compound 500 nM, 24 hours, Western blot
Summary of the method: (§1)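 hPBMC, 1×10^6 cells/mL, 24 h compound exposure; RIPA lysis, BCA protein assay, SDS-PAGE, NC membrane immunoblot. Densitometry vs internal control → % protein remaining; degradation % = 100% − remaining; DC50 = conc. at 50% of DMSO band signal.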

[1] = biological target: human Cereblon WT GST-tagged protein (Homo sapiens (Human), UniProt Q96SW2); experiment: CRBN-binding affinity, HTRF (CEREBLON BINDING kit, CISBIO); conditions: HTRF inhibitory activity
Summary of the method: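 HTRF competition format: test compound displaces Thalidomide-Red from GST-tagged human Cereblon WT, detected with a Eu-labelled anti-GST antibody. Percent CRBN binding inhibition was derived from the 620 nm signal, normalized to solvent-control and protein-free blank wells.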

IKZF1 = IKZF1 (Homo sapiens (Human), UniProt Q13422+Q96SW2); experiment: Western blot, substrate protein expression in hPBMC: IKZF1; format: cell-based; conditions: hPBMC, compound 500 nM, 24 hours, Western blot
Summary of the method: as §1

GSPT1 = GSPT1 (Homo sapiens (Human), UniProt P15170+Q96SW2); experiment: Western blot, substrate protein expression in hPBMC: GSPT1; format: cell-based; conditions: hPBMC, compound 500 nM, 24 hours, Western blot
Summary of the method: as §1

Chain of IKZF3 (Q9UKT9 whole entry): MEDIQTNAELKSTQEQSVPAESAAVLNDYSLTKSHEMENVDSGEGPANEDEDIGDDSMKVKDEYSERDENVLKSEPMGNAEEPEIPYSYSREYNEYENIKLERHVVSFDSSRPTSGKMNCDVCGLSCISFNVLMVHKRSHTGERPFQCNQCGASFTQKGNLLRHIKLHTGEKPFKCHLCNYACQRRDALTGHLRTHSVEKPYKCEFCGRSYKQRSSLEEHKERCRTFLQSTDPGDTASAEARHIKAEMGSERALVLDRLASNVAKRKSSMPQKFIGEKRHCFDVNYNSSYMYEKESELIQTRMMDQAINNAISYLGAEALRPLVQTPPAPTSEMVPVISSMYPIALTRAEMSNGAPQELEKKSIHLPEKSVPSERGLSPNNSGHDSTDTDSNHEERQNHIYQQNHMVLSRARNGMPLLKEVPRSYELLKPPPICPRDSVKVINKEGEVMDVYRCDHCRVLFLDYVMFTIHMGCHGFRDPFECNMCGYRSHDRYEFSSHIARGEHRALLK
Chain of IKZF3 (Q96SW2 whole entry): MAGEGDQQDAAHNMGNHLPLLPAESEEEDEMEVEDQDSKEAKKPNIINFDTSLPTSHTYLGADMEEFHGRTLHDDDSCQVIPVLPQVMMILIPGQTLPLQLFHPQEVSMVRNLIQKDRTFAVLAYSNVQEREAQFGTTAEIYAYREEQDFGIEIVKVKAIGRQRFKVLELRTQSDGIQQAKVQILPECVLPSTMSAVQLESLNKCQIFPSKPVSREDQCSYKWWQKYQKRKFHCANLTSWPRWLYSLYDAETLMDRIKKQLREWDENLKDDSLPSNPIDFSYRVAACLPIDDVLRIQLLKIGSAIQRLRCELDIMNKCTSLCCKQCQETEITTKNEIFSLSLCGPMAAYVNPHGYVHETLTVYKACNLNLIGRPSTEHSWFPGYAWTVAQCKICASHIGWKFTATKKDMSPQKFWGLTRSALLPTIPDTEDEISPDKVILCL
Chain of IKZF3 (Q16531 whole entry partner): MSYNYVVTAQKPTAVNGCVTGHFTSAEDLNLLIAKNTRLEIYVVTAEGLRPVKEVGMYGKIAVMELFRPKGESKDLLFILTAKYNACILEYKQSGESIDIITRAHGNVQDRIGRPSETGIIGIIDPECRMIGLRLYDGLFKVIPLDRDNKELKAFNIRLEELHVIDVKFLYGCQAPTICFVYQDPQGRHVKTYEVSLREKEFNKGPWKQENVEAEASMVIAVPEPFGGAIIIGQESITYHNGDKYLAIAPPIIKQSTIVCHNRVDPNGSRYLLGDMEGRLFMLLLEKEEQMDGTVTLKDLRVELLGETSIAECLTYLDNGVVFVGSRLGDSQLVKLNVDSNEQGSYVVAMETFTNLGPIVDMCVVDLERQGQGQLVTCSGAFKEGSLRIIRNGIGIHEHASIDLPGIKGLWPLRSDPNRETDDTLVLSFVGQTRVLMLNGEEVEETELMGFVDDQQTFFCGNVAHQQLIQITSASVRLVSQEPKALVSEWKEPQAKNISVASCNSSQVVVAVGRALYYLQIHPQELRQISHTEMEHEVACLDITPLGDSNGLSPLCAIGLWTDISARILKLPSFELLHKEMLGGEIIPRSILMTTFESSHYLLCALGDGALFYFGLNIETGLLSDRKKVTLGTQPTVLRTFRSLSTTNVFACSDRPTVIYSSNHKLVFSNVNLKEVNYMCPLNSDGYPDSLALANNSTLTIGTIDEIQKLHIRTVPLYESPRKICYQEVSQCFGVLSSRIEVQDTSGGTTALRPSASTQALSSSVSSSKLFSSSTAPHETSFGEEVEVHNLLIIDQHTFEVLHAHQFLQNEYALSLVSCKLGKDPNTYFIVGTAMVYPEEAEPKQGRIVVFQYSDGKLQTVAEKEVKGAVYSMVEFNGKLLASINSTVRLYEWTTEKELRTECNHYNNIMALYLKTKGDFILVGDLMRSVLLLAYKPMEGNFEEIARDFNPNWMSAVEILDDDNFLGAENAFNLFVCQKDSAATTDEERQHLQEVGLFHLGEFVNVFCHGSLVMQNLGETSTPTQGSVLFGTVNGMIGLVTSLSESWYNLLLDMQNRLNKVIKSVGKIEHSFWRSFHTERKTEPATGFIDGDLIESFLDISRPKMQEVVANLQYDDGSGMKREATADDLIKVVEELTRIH
Chain of IKZF1 (Q13422 whole entry): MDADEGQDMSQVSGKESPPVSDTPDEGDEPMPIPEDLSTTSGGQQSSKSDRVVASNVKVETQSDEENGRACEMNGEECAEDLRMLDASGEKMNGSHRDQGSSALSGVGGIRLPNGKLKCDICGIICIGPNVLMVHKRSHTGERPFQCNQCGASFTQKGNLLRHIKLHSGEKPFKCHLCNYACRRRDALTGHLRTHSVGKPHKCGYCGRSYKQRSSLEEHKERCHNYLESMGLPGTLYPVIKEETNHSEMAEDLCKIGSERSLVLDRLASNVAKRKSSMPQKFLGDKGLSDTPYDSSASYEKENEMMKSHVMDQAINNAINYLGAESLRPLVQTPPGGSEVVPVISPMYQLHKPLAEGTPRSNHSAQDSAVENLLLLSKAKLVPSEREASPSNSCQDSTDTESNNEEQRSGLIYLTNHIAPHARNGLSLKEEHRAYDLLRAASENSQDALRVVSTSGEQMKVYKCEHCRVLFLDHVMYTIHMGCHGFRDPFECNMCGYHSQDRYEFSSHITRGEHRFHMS
Chain of IKZF1 (Q96SW2 whole entry): as the sequence (Q96SW2 whole entry) above
Chain of IKZF1 (Q16531 whole entry partner): as the sequence (Q16531 whole entry partner) above
Chain of GSPT1 (P15170 whole entry): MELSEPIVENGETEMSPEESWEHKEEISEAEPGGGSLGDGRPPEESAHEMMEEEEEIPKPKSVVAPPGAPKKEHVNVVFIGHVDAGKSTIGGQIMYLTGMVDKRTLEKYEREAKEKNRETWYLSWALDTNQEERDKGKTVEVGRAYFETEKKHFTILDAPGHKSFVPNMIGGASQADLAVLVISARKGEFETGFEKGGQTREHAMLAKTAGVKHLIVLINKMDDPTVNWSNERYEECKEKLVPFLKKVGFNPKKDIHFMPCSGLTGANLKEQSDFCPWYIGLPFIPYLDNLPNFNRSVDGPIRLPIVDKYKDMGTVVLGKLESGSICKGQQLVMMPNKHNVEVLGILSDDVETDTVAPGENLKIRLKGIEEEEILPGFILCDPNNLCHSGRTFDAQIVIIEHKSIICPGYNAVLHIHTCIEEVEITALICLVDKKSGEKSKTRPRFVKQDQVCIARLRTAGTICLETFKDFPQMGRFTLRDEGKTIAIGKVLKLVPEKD
Chain of GSPT1 (Q96SW2 whole entry): as the sequence (Q96SW2 whole entry) above
Chain of GSPT1 (Q16531 whole entry partner): as the sequence (Q16531 whole entry partner) above
Chain of human Cereblon WT GST-tagged protein (Q96SW2 whole entry): as the sequence (Q96SW2 whole entry) above

Compound | substrate protein remaining % IKZF3 (IKZF3) | pIC50 [1] | substrate protein remaining % IKZF1 (IKZF1) | substrate protein remaining % GSPT1 (GSPT1)
O=C1CCC(N2Cc3c(ccc(CN4CCN(C(c5ccc(Cl)cc5)c5ccc(Cl)cc5)CC4)c3F)C2=O)C(=O)N1 (stereo not shown) [GT-03567, 3-(5-((4-(bis(4-chlorophenyl)methyl)piperazin-1-yl)methyl)-4-fluoro-1-oxoisoindolin-2-yl)piperidine-2,6-dione] | A (A represents 0% ≤ substrate protein remaining % ≤ 50%) | 5.72 to 6.00 | B (B represents substrate protein remaining % > 50%) | A (A represents 0% ≤ substrate protein remaining % ≤ 50%)
O=C1CCC(N2Cc3cc(CN4C5CC4CN(C(c4ccccc4)c4ccccc4)C5)ccc3C2=O)C(=O)N1 (stereo not shown) [GT-03569, 3-(5-((3-benzhydryl-3,6-diazabicyclo[3.1.1]heptan-6-yl)methyl)-1-oxoisoindolin-2-yl)piperidine-2,6-dione] | A (A represents 0% ≤ substrate protein remaining % ≤ 50%) | 6.00 to 6.30 | B (B represents substrate protein remaining % > 50%) | A (A represents 0% ≤ substrate protein remaining % ≤ 50%)
O=C1CCC(N2Cc3cc(CN4C[C@H]5C[C@@H]4CN5C(c4ccccc4)c4ccccc4)ccc3C2=O)C(=O)N1 (stereo partly drawn) [GT-03570, 3-(5-(((1R,4R)-5-benzhydryl-2,5-diazabicyclo[2.2.1]heptan-2-yl)methyl)-1-oxoisoindolin-2-yl)piperidine-2,6-dione] | B (B represents substrate protein remaining % > 50%) | > 6.30 | B (B represents substrate protein remaining % > 50%) | A (A represents 0% ≤ substrate protein remaining % ≤ 50%)
C[C@@H]1CN(C(c2ccccc2)c2ccccc2)CCN1Cc1ccc2c(c1)CN(C1CCC(=O)NC1=O)C2=O (stereo partly drawn) [GT-03571, 3-(5-(((R)-4-benzhydryl-2-methylpiperazin-1-yl)methyl)-1-oxoisoindolin-2-yl)piperidine-2,6-dione] | B (B represents substrate protein remaining % > 50%) | > 6.30 | B (B represents substrate protein remaining % > 50%) | A (A represents 0% ≤ substrate protein remaining % ≤ 50%)
C[C@@H]1CN(C(c2ccccc2)c2ccccc2)CCN1Cc1ccc2c(c1F)CN(C1CCC(=O)NC1=O)C2=O (stereo partly drawn) [GT-03574, 3-(5-(((R)-4-benzhydryl-2-methylpiperazin-1-yl)methyl)-4-fluoro-1-oxoisoindolin-2-yl)piperidine-2,6-dione] | B (B represents substrate protein remaining % > 50%) | 6.00 to 6.30 | B (B represents substrate protein remaining % > 50%) | A (A represents 0% ≤ substrate protein remaining % ≤ 50%)
O=C1CCC(N2Cc3cc(CN4C5CC4CN(C(c4ccccc4)c4ccccc4)C5)cc(F)c3C2=O)C(=O)N1 (stereo not shown) [GT-03575, 3-(5-((3-benzhydryl-3,6-diazabicyclo[3.1.1]heptan-6-yl)methyl)-7-fluoro-1-oxoisoindolin-2-yl)piperidine-2,6-dione] | B (B represents substrate protein remaining % > 50%) | 6.00 to 6.30 | B (B represents substrate protein remaining % > 50%) | A (A represents 0% ≤ substrate protein remaining % ≤ 50%)
O=C1CCC(N2Cc3c(CN4CCN(C(c5ccc(F)cc5)c5ccc(F)cc5)CC4)cccc3C2=O)C(=O)N1 (stereo not shown) [GT-03647, 3-(4-((4-(bis(4-fluorophenyl)methyl)piperazin-1-yl)methyl)-1-oxoisoindolin-2-yl)piperidine-2,6-dione] | B (B represents substrate protein remaining % > 50%) | 6.00 to 6.30 | B (B represents substrate protein remaining % > 50%) | A (A represents 0% ≤ substrate protein remaining % ≤ 50%)
O=C1CCC(N2Cc3cc(CN4C[C@@H]5C[C@H]4CN5C(c4ccccc4)c4ccccc4)ccc3C2=O)C(=O)N1 (stereo partly drawn) [GT-03721, 3-(5-(((1S,4S)-5-benzhydryl-2,5-diazabicyclo[2.2.1]heptan-2-yl)methyl)-1-oxoisoindolin-2-yl)piperidine-2,6-dione] | A (A represents 0% ≤ substrate protein remaining % ≤ 50%) | > 6.30 | B (B represents substrate protein remaining % > 50%) | A (A represents 0% ≤ substrate protein remaining % ≤ 50%)
O=C1CCC(N2Cc3cc(CN4CC5CCC(C4)N5C(c4ccccc4)c4ccccc4)ccc3C2=O)C(=O)N1 (stereo not shown) [GT-03722, 3-(5-((8-benzhydryl-3,8-diazabicyclo[3.2.1]octan-3-yl)methyl)-1-oxoisoindolin-2-yl)piperidine-2,6-dione] | A (A represents 0% ≤ substrate protein remaining % ≤ 50%) | > 6.30 | A (A represents 0% ≤ substrate protein remaining % ≤ 50%) | A (A represents 0% ≤ substrate protein remaining % ≤ 50%)
CC1CN(C(c2ccccc2)c2ccccc2)CC(C)N1Cc1ccc2c(c1)CN(C1CCC(=O)NC1=O)C2=O (stereo not shown) [GT-03723, 3-(5-((4-benzhydryl-2,6-dimethylpiperazin-1-yl)methyl)-1-oxoisoindolin-2-yl)piperidine-2,6-dione] | B (B represents substrate protein remaining % > 50%) | 6.00 to 6.30 | B (B represents substrate protein remaining % > 50%) | A (A represents 0% ≤ substrate protein remaining % ≤ 50%)
O=C1CCC(N2Cc3c(ccc(CN4CC5CCC(C4)N5C(c4ccccc4)c4ccccc4)c3F)C2=O)C(=O)N1 (stereo not shown) [GT-03725, 3-(5-((8-benzhydryl-3,8-diazabicyclo[3.2.1]octan-3-yl)methyl)-4-fluoro-1-oxoisoindolin-2-yl)piperidine-2,6-dione] | A (A represents 0% ≤ substrate protein remaining % ≤ 50%) | 6.00 to 6.30 | A (A represents 0% ≤ substrate protein remaining % ≤ 50%) | A (A represents 0% ≤ substrate protein remaining % ≤ 50%)
CC1CN(C(c2ccccc2)c2ccccc2)CC(C)N1Cc1ccc2c(c1F)CN(C1CCC(=O)NC1=O)C2=O (stereo not shown) [GT-03726, 3-(5-((4-benzhydryl-2,6-dimethylpiperazin-1-yl)methyl)-4-fluoro-1-oxoisoindolin-2-yl)piperidine-2,6-dione] | B (B represents substrate protein remaining % > 50%) | > 6.30 | B (B represents substrate protein remaining % > 50%) | A (A represents 0% ≤ substrate protein remaining % ≤ 50%)
O=C1CCC(N2Cc3c(CN4CCN(C(c5ccccc5)c5ccccn5)CC4)cccc3C2=O)C(=O)N1 (stereo not shown) [GT-03836, 3-(1-oxo-4-((4-(phenyl(pyridin-2-yl)methyl)piperazin-1-yl)methyl)isoindolin-2-yl)piperidine-2,6-dione] | B (B represents substrate protein remaining % > 50%) | 6.00 to 6.30 | B (B represents substrate protein remaining % > 50%) | A (A represents 0% ≤ substrate protein remaining % ≤ 50%)
